Results from article PMC8879074, “A Novel Small Molecular Prostaglandin Receptor EP4 Antagonist, L001, Suppresses Pancreatic Cancer Metastasis” (Molecules, 2022).

Columns and labels:
[1] = test system: Pan02-Luc hepatic metastasis; test: Pan02-Luc liver metastasis model with bioluminescent imaging; type: in vivo, C57BL/6 mice; conditions: L001 or E7046 75 mg/kg p.o. daily, gemcitabine 25 mg/kg i.p. twice a week; for reduction of Pan02 cell liver metastases (bioluminescence of separated livers) / reduction in median luminescence signal compared with vehicle control group: n = 6; for reduction in median luminescence signal compared with vehicle control group: day 28; for median survival: n = 9, control 34 days
Protocol: (§1) Male C57/BL6 mice (6–8 weeks) were obtained from the National Rodent Laboratory Animal Resources (NRLAR, Shanghai, China). All mice were housed according to Institutional Animal Care and Use Committee guidelines and under a protocol approved by East China Normal University Ethics Committee with respect to animal care and welfare assurance. The bioluminescent liver metastasis mouse model was established as described previously. In brief, 2 × 10^6 Pan02/luc cells suspended in 50 μL of PBS were injected into mice spleen. […] Tumor metastasis was monitored by using an in vivo imaging system following intraperitoneal injection with D-Luciferin (2 mg per mouse; Promega). Bioluminescence intensity was recorded every seven days by a Xenogen IVIS-200 Optical in vivo imaging system (PerkinElmer; Waltham, MA, USA) for up to 4 weeks. The mouse body weight was measured every other day. Survival curve analysis was performed using GraphPad Prism 7.
Mouse liver tissues were harvested, fixed, paraffin embedded, and sectioned (8 μm). The tissues were permeabilized with 0.25% TritonX-100 at room temperature for 15 min, blocked with 1% FBS in PBS, and followed by incubation in primary antibodies at 4 °C overnight: rabbit anti-YAP (1:50 dilution, ab205270, abcam). The sections were then washed with PBS, incubated with anti-rabbit secondary antibody for 2 h and dyed with DAPI (10 μg/mL in PBS) for 5 min at room temperature. Slides were mounted using DPX Mountant (Electron Microscopy Sciences) and images were obtained by inverted fluorescence microscope (Olympus, Tokyo, Japan).

[2] = test system: YAP protein in BxPC-3 cells; test: Western blotting of YAP protein, BxPC-3; type: cell-based, human; conditions: 10 μM PGE2
Protocol: (§2) Cells were lysed in RIPA lysis buffer with phosphatase and protease inhibitors (Calbiochem, San Diego, CA, USA) and denatured by heating at 100 °C for 10 min. Proteins were separated on 10% bis-tris polyacrylamide gels, transferred to nitrocellulose filter membranes (Millipore, Burlington, NJ, USA), and blocked with 5% BSA (Sangon Biotech, Shanghai, China). The membranes were incubated with the indicated primary antibodies overnight and subsequently probed with indicated secondary antibodies. Images of the blots were taken and analyzed by Odyssey imaging system (Li-COR Biosciences, Lincoln, NE, USA). The primary antibodies were listed as follows: Human-YAP (1:10,000 dilution, CY5381, abways); Mouse-YAP (1:1000 dilution, ab205270, abcam); EP4 (1:500 dilution, 101775, Cayman Chemical); GAPDH (1:10,000 dilution, Ab181602, abcam).

[3] = test system: YAP protein in Pan02 cells; test: Western blotting of YAP protein, Pan02; type: cell-based, murine; conditions: 10 μM PGE2
Protocol: as §2

[4] = test system: BxPC-3 cells; test: Transwell migration assay, BxPC-3; type: cell-based, human; conditions: 0.1 μM PGE2; 16 h
Protocol: (§3) The transwell assay was conducted as described previously, using 8 μm pore transwell inserts (Corning, NY, USA). Cells were suspended in serum-free DMEM and seeded into upper chambers at appropriate density. The bottom chamber was filled with DMEM supplemented with 10% fetal bovine serum and indicated concentrations of PGE2. The compounds were added in both upper and bottom chambers. […] Migrated cells were counted and quantified using image J.

[5] = test system: YAP, CYR61 and CTGF mRNA in Pan02 cells; test: Real-time qPCR of YAP and YAP target genes, Pan02; type: cell-based, murine; conditions: 10 μM PGE2
Protocol: (§4) Total RNA was extracted from cells using TRIzol reagent. The cDNA was synthesized by RT-PCR kit (Vazyme Biotech, Nanjing, China). The band intensity was determined by the gel image analysis system (Bio-Rad, Hercules, CA, USA). SYBR Green-based qPCR (Yeason, Shanghai, China) was conducted subsequently. Relative mRNA levels of target genes were normalized with β-actin. The sequences of primers are listed in Supplementary Table S1. The raw data are listed in Supplementary Table S2.

[6] = test system: YAP/TEAD reporter in BxPC-3 cells; test: TEAD-driven luciferase reporter assay, BxPC-3; type: cell-based, human; conditions: 16 h
Protocol: (§5) CHO-K1 cells or pancreatic cancer cell lines were transfected with a cAMP responsive element (CRE) reporter or TEAD reporter using lipofectamine 2000 according to the manufacturer’s manual. […] Then, cells were lysed and luciferase activities were determined using Dual-Luciferase Reporter Assay Kit (Promega, Madison, WI, USA).

[7] = test system: Pan02 cells; test: Wound healing assay, Pan02; type: cell-based, murine; conditions: various concentrations of PGE2
Protocol: (§6) The wound healing assay was performed according to a standard protocol as described before. Briefly, Pan02 and BxPC-3 cells were grown as a confluent monolayer in 12-well plates (Corning, Corning, NY, USA) overnight and starved with serum-free medium for 6 h. The monolayer cells were disrupted with a P100 micropipette tip (JET BIOFIL, Guangzhou, China) and rinsed with PBS to remove detached cells. Medium containing different concentrations of compounds was added subsequently. After 24 h, treated cells were stained with 2 μM calcein-AM (Yeasen, Shanghai, China) for 20 min and washed with PBS. Photos were taken of the area in the scraped zone of each dish at 100× magnification by using an inverted fluorescent microscope (OLYMPUS, Tokyo, Japan).

[8] = test system: YAP/TEAD reporter in Pan02 cells; test: TEAD-driven luciferase reporter assay, Pan02; type: cell-based, murine; conditions: 16 h
Protocol: as §5

[9] = test system: YAP, CYR61, CTGF, Vimentin, Snail, E-cadherin mRNA in BxPC-3 cells; test: Real-time qPCR of YAP, YAP target genes and EMT markers, BxPC-3; type: cell-based, human; conditions: 10 μM PGE2
Protocol: as §4

[10] = test system: Pan02 cells; test: Transwell migration assay, Pan02; type: cell-based, murine; conditions: 0.1 μM PGE2; 16 h
Protocol: as §3

[11] = test system: BxPC-3 cells; test: Wound healing assay, BxPC-3; type: cell-based, human; conditions: various concentrations of PGE2
Protocol: as §6

[12] = Body weight of mice in Pan02-Luc metastasis model; type: in vivo, C57BL/6 mice; conditions: L001 75 mg/kg p.o. daily; gemcitabine 25 mg/kg i.p. twice a week; n = 6
Protocol: as §1

| SMILES | H&E imaging of liver sections [1] | reduction of Pan02 cell liver metastases (bioluminescence of separated livers) [1] [%] | reduction in median luminescence signal compared with vehicle control group [1] [%] | median survival [1] [days] | level of intracellular YAP protein over time [2] | level of intracellular YAP protein over time [3] | increase in migrated BxPC-3 cells [4] [fold] | expression of YAP target genes CYR61 and CTGF over time [5] | max luminescence fold increase of TEAD-driven luciferase activity [6] [fold] | cell motility (wound closure) vs vehicle [7] | max luminescence fold increase of TEAD-driven luciferase activity [8] [fold] | expression of YAP target genes CYR61 and CTGF over time [9] | increase in migrated Pan02 cells [10] [fold] | cell motility (wound closure) vs vehicle [11] | body weight loss [12] |
| --- | --- | --- | --- | --- | --- | --- | --- | --- | --- | --- | --- | --- | --- | --- | --- |
| C[C@H](NC(=O)c1c(C(F)F)nn(C)c1Oc1cccc(C(F)(F)F)c1)c1ccc(C(=O)O)cc1 [E7046] | remarkably reduced metastatic clusters | 76.42 | 69.13 | 35 | – | – | – | – | – | – | – | – | – | – | – |
| CCCCC[C@H](O)/C=C/[C@H]1[C@H](O)CC(=O)[C@@H]1C/C=C\CCCC(=O)O [PGE2, Prostaglandin E2, reference compound] | – | – | – | – | significantly increased | significantly increased | 2.5 | elevated | 1.56 | significantly promoted the motility | 1.87 | elevated | 1.2 | significantly promoted the motility | – |
| Nc1ccn([C@@H]2O[C@H](CO)[C@@H](O)C2(F)F)c(=O)n1 [gemcitabine] | remarkably reduced metastatic clusters | 93.2 | 91.79 | 46 | – | – | – | – | – | – | – | – | – | – | barely found |
